# Measurements from patent publication US20170190671A1, “BIS(ARYL)CATECHOL DERIVATIVES AS HERBICIDES” (E I DU PONT DE NEMOURS AND COMPANY, priority 2014, published 2017).
# What was measured:
# Assay type in all cases: in vivo
# [1] = system: galium (catchweed bedstraw, Galium aparine); experiment: Test A postemergence; conditions: Galium, post-emergence, 240 h, 0 to 100 scale, read-out: Plant response rating, Galium; for pest or weed control at 31 g/ha: 31 g ai/ha; for pest or weed control at 125 g/ha: 125 g ai/ha
# Method in brief: (§1)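 Visual 0–100 rating (100 = complete control) taken about 10 d post-treatment relative to untreated checks. Preemergence: directed soil spray on sown loam/sand pots. Postemergence: seedlings 2–10 cm, 1–2 leaf. Non-phytotoxic solvent formulation with surfactant.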
# [2] = system: wheat (Triticum aestivum); experiment: Test A postemergence; conditions: Triticum aestivum, post-emergence, 240 h, 0 to 100 scale, read-out: Plant response rating, Wheat; for plant injury at 31 g/ha: 31 g ai/ha; for plant injury at 125 g/ha: 125 g ai/ha
# Method in brief: as §1
# [3] = system: giant foxtail (Setaria faberii); experiment: Test A postemergence; conditions: Setaria faberi, post-emergence, 240 h, 0 to 100 scale, read-out: Plant response rating, Foxtail, Giant; for pest or weed control at 31 g/ha: 31 g ai/ha; for pest or weed control at 125 g/ha: 125 g ai/ha
# Method in brief: as §1
# [4] = system: Italian ryegrass (Lolium multiflorum); experiment: Test A postemergence; conditions: Lolium multiflorum, post-emergence, 240 h, 0 to 100 scale, read-out: Plant response rating, Ryegrass, Italian; for pest or weed control at 31 g/ha: 31 g ai/ha; for pest or weed control at 125 g/ha: 125 g ai/ha
# Method in brief: as §1
# [5] = system: blackgrass (Alopecurus myosuroides); experiment: Test A postemergence; conditions: Alopecurus myosuroides, post-emergence, 240 h, 0 to 100 scale, read-out: Plant response rating, Blackgrass; for pest or weed control at 31 g/ha: 31 g ai/ha; for pest or weed control at 125 g/ha: 125 g ai/ha
# Method in brief: as §1
# [6] = system: pigweed (Amaranthus retroflexus); experiment: Test A postemergence; conditions: Amaranthus retroflexus, post-emergence, 240 h, 0 to 100 scale, read-out: Plant response rating, Pigweed; for pest or weed control at 31 g/ha: 31 g ai/ha; for pest or weed control at 125 g/ha: 125 g ai/ha
# Method in brief: as §1
# corn (Zea mays) = experiment: Test A postemergence; conditions: Zea mays, post-emergence, 240 h, 0 to 100 scale; for Corn plant response rating (crop injury, 0 = no effect, 100 = complete kill) at 31 g/ha: 31 g ai/ha; for Corn plant response rating (crop injury, 0 = no effect, 100 = complete kill) at 125 g/ha: 125 g ai/ha
# Method in brief: as §1
# [7] = system: ragweed (common ragweed, Ambrosia elatior); experiment: Test A postemergence; conditions: Ambrosia artemisiifolia, post-emergence, 240 h, 0 to 100 scale, read-out: Plant response rating, Ragweed; for pest or weed control at 31 g/ha: 31 g ai/ha; for pest or weed control at 125 g/ha: 125 g ai/ha
# Method in brief: as §1
# kochia (Kochia scoparia) [8] = experiment: Test A postemergence; conditions: Bassia scoparia, post-emergence, 240 h, 0 to 100 scale, read-out: Plant response rating, Kochia; for pest or weed control at 31 g/ha: 31 g ai/ha; for pest or weed control at 125 g/ha: 125 g ai/ha
# Method in brief: as §1
# [9] = system: barnyardgrass (Echinochloa crus-galli); experiment: Test A postemergence; conditions: Echinochloa crus-galli, post-emergence, 240 h, 0 to 100 scale, read-out: Plant response rating, Barnyardgrass; for pest or weed control at 31 g/ha: 31 g ai/ha; for pest or weed control at 125 g/ha: 125 g ai/ha
# Method in brief: as §1
# [10] = system: giant foxtail (Setaria faberii); experiment: Test A preemergence; conditions: Setaria faberi, pre-emergence, 240 h, 0 to 100 scale (0 no effect, 100 complete control), read-out: Foxtail, Giant plant response rating; for pest or weed control at 31 g/ha: 31 g ai/ha; for pest or weed control at 125 g/ha: 125 g ai/ha
# Method in brief: as §1
# [11] = system: Italian ryegrass (Lolium multiflorum); experiment: Test A preemergence; conditions: Lolium multiflorum, pre-emergence, 240 h, 0 to 100 scale (0 no effect, 100 complete control), read-out: Ryegrass, Italian plant response rating; for pest or weed control at 31 g/ha: 31 g ai/ha; for pest or weed control at 125 g/ha: 125 g ai/ha
# Method in brief: as §1
# [12] = system: pigweed (Amaranthus retroflexus); experiment: Test A preemergence; conditions: Amaranthus retroflexus, pre-emergence, 240 h, 0 to 100 scale (0 no effect, 100 complete control), read-out: Pigweed plant response rating; for pest or weed control at 31 g/ha: 31 g ai/ha; for pest or weed control at 125 g/ha: 125 g ai/ha
# Method in brief: as §1
# [13] = system: ragweed (common ragweed, Ambrosia elatior); experiment: Test A preemergence; conditions: Ambrosia artemisiifolia, pre-emergence, 240 h, 0 to 100 scale (0 no effect, 100 complete control), read-out: Ragweed plant response rating; for pest or weed control at 31 g/ha: 31 g ai/ha; for pest or weed control at 125 g/ha: 125 g ai/ha
# Method in brief: as §1
# kochia (Kochia scoparia) [14] = experiment: Test A preemergence; conditions: Bassia scoparia, pre-emergence, 240 h, 0 to 100 scale (0 no effect, 100 complete control), read-out: Kochia plant response rating; for pest or weed control at 31 g/ha: 31 g ai/ha; for pest or weed control at 125 g/ha: 125 g ai/ha
# Method in brief: as §1
# [15] = system: barnyardgrass (Echinochloa crus-galli); experiment: Test A preemergence; conditions: Echinochloa crus-galli, pre-emergence, 240 h; for pest or weed control at 31 g/ha: 31 g ai/ha; for pest or weed control at 125 g/ha: 125 g ai/ha
# Method in brief: as §1
# rice (Oryza sativa) = experiment: Test B flooded paddy; conditions: Oryza sativa, 336 h; 250 g ai/ha, Flood, 13 to 15 days, scale 0 (no effect) to 100 (complete control); read-out: Plant response rating, Rice
# Method in brief: (§2)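 Test compounds are applied straight into paddy water held 3 cm above the soil surface, with that flood maintained for the whole test. After 13 to 15 days in the greenhouse, each species is scored visually relative to controls.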
# [16] = system: ducksalad (Heteranthera limosa); experiment: Test B flooded paddy; conditions: Heteranthera limosa, 336 h; 250 g ai/ha, Flood, 13 to 15 days, scale 0 (no effect) to 100 (complete control); read-out: Plant response rating, Ducksalad
# Method in brief: as §2
# [17] = system: sedge, umbrella (small-flower umbrella sedge, Cyperus difformis); experiment: Test B flooded paddy; conditions: Cyperus difformis, 336 h; 250 g ai/ha, Flood, 13 to 15 days, scale 0 (no effect) to 100 (complete control); read-out: Plant response rating, Sedge, Umbrella
# Method in brief: as §2
# [18] = system: barnyardgrass (Echinochloa crus-galli); experiment: Test B flooded paddy; conditions: Echinochloa crus-galli, 336 h; 250 g ai/ha, Flood, 13 to 15 days, scale 0 (no effect) to 100 (complete control); read-out: Plant response rating, Barnyardgrass
# Method in brief: as §2
# [19] = 0 to 100 scale (0 no effect, 100 complete control), read-out: Barnyardgrass plant response rating
SMILES,pest or weed control at 31 g/ha [1] [%],pest or weed control at 125 g/ha [1] [%],plant injury at 31 g/ha [2] [%],plant injury at 125 g/ha [2] [%],pest or weed control at 31 g/ha [3] [%],pest or weed control at 125 g/ha [3] [%],pest or weed control at 31 g/ha [4] [%],pest or weed control at 125 g/ha [4] [%],pest or weed control at 31 g/ha [5] [%],pest or weed control at 125 g/ha [5] [%],pest or weed control at 31 g/ha [6] [%],pest or weed control at 125 g/ha [6] [%],"Corn plant response rating (crop injury, 0 = no effect, 100 = complete kill) at 31 g/ha (corn (Zea mays)) [%]","Corn plant response rating (crop injury, 0 = no effect, 100 = complete kill) at 125 g/ha (corn (Zea mays)) [%]",pest or weed control at 31 g/ha [7] [%],pest or weed control at 125 g/ha [7] [%],pest or weed control at 31 g/ha (kochia (Kochia scoparia) [8]) [%],pest or weed control at 125 g/ha (kochia (Kochia scoparia) [8]) [%],pest or weed control at 31 g/ha [9] [%],pest or weed control at 125 g/ha [9] [%],other results
Fc1ccc(F)c(Oc2ncc(Br)cn2)c1Oc1ncc(Br)cn1 [Compound 31],70,100,20,30,20,40,10,30,20,30,90,90,20,30,0,0,20,80,10,20,"pest or weed control at 31 g/ha [10]: 40%; pest or weed control at 125 g/ha [10]: 90%; pest or weed control at 31 g/ha [11]: 0%; pest or weed control at 125 g/ha [11]: 0%; pest or weed control at 31 g/ha [12]: 70%; pest or weed control at 125 g/ha [12]: 100%; pest or weed control at 31 g/ha [13]: 0%; pest or weed control at 125 g/ha [13]: 20%; pest or weed control at 31 g/ha (kochia (Kochia scoparia) [14]): 30%; pest or weed control at 125 g/ha (kochia (Kochia scoparia) [14]): 90%; pest or weed control at 31 g/ha [15, 19]: 0%; pest or weed control at 125 g/ha ([15]; 0 to 100 scale, read-out: Plant response rating, Barnyardgrass): 70%; plant injury at 250 g/ha (rice (Oryza sativa)): 0%; pest or weed control at 250 g/ha [16]: 50%; pest or weed control at 250 g/ha [17]: 50%; pest or weed control at 250 g/ha [18]: 0%"
N#Cc1cccc(Oc2ncc(Cl)cn2)c1Oc1ccc(Cl)cc1 [Compound 36],90,100,0,10,20,50,0,10,20,40,90,100,20,20,10,20,80,100,10,30,"pest or weed control at 31 g/ha [10]: 70%; pest or weed control at 125 g/ha [10]: 90%; pest or weed control at 31 g/ha [11]: 0%; pest or weed control at 125 g/ha [11]: 20%; pest or weed control at 31 g/ha [12]: 60%; pest or weed control at 125 g/ha [12]: 100%; pest or weed control at 31 g/ha [13]: 0%; pest or weed control at 125 g/ha [13]: 0%; pest or weed control at 31 g/ha (kochia (Kochia scoparia) [14]): 10%; pest or weed control at 125 g/ha (kochia (Kochia scoparia) [14]): 50%; pest or weed control at 31 g/ha [15, 19]: 0%; pest or weed control at 125 g/ha [15, 19]: 40%; plant injury at 250 g/ha (rice (Oryza sativa)): 0%; pest or weed control at 250 g/ha [16]: 65%; pest or weed control at 250 g/ha [17]: 95%; pest or weed control at 250 g/ha [18]: 0%"
